In patent US12570684B2 (UNIVERSITY OF TENNESSEE RESEARCH FOUNDATION, priority 2020, dated 2026):
Several values for one entry are separate records, joined by “and”; a condition that tells them apart may be missing. Identical values can stand only once. Like-named read-outs stand apart in the source and are kept apart here.

Key:
[1] = target: MraY (Hydrogenivirga sp.) (Hydrogenivirga sp. 128-5-R1-1, UniProt Z9Y2G8N0L0); assay: MraY assay; format: biochemical
Procedure: Expression and purification of HyMraY. The gene mraY of Hydrogenivirga spp. 128-5-R1-1 was cloned with a N-terminal His6 tag into a pET22b vector. […] The proteins were purified using a nickel, cation exchange, and size exclusion chromatography.
MraY assay. MraY assay substrates, Park's nucleotide-N^ε-C6-dansylthiourea, neryl phosphate, were chemically synthesized according to the reported procedures.^7 Park's nucleotide-N^ε-C6-dansylthiourea (2 mM stock solution, 1.88 jiL), MgCl2 (0.5 M, 5 jiL), KCl (2 M, 5 jiL), Triton X-100 (0.5%, 5.63 jiL), Tris buffer (pH 8.0, 50 mM), neryl phosphate (0.1 M, 2.25 jiL), and inhibitor molecule (0-50 .ig/mL in Tris buffer) were placed in a 1.5 mL Eppendorf tube. […] (26° C.) and quenched with CHCl3 (100 jiL). […] The aqueous phase was assayed via reverse-phase HPLC.

[2] = target: T1, DPAGT1 (Human) (Homo sapiens, UniProt Q9H3H5); assay: DPAGT1 assay; format: biochemical
T1 construct: made in house; host or cells: Expi293 cells (suspension)
T1 sequence (Q9H3H5 1-408): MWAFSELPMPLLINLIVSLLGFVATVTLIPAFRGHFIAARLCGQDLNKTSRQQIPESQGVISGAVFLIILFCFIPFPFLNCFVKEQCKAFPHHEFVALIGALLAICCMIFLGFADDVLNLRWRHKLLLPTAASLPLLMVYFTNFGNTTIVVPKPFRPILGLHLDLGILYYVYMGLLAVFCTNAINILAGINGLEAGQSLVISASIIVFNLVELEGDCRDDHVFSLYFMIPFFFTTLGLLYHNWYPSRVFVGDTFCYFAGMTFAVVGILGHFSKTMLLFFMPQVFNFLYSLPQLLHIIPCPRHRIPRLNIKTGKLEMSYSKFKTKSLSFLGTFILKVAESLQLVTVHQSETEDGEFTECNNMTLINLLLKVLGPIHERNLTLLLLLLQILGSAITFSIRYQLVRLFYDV
Procedure: DPAGT1 expression and purification. DPAGT1 was expressed in suspended Expi293 cells for 36 h. The cells were lysed by drawing through a 26 g needle (10 times) and membrane protein was extracted using buffer containing 1% decyl f3-D-maltopyranoside detergent. DPAGT1 was purified using HA-agarose resin and a superdex 200 size exclusion column.

[3] = system: DLD-1; assay: MTT cytotoxicity assay; format: cell-based
Procedure: (§1) Cell lines. The human primary PDAC cell lines PANC-1 (ATCC CRL 1469); Capan-2 (ATCC HTB-80) and metastatic PDAC cell lines Capan-1 (ATCC HTB-79), AsPC-1 (ATCC CRL-1682), L1210 (ATCC CCL-219), KB (ATCC CCL-17), HeLa, SiHa (ATCC HTB-35), HCT-116 (ATCC CCL-247), DLD-1 (ATCC CCL221), hTERT-HPNE (ATCC CRL-4023), Vero (ATCC CCL-81) were purchased from the ATCC. The cell lines were cultured and maintained in the media as recommended by the supplier. The cell lines were regularly tested for mycoplasma contamination and authenticated. In addition to ATCC cell lines, Dr. Glazer's lab generated patient-derived PDAC cell line, PD002. PD002 Cells were maintained and cultured in DMEM medium supplemented with 20% FBS and 100 IU/mL penicillin and incubated at 37° C. with 5% CO2.
(§2) MTT cytotoxicity assay. To study the effect of treatment with DPAGT1 inhibitors on the growth and proliferation of cells, a fixed number of cells (5×10^4 cells/well, 196 μL) were plated in a 96 well plate. Into each well 5 μL of drug concentration was added. After 72 h of incubation with drugs at 37° C., 5% CO2, 10 μL of MTT solution (5 mg/mL in PBS) was added and incubated another 3 h at 37° C., 5% CO2. The medium was removed, and DMSO (200 μL/well) was added. Viability was assessed on the basis of cellular conversion of MTT into a purple formazan product. The absorbance of the colored formazan product was measured at 570 nm by BioTek Synergy HT Spectrophotometer.

[4] = system: HCT-116; assay: MTT cytotoxicity assay; format: cell-based
Procedure: as §1, §2

[5] = system: HPNE; assay: MTT cytotoxicity assay; format: cell-based; details: for IC50: MTT, 72 h
Procedure: as §1, §2

[6] = system: KB; assay: MTT cytotoxicity assay; format: cell-based; details: 72 h
Procedure: as §1, §2

[7] = system: L1210; assay: MTT cytotoxicity assay; format: cell-based; details: for IC50: MTT, 72 h
Procedure: as §1, §2

[8] = system: PD002; assay: MTT cytotoxicity assay; format: cell-based; details: MTT, 72 h
Procedure: as §1, §2

[9] = system: SiHa; assay: MTT cytotoxicity assay; format: cell-based; details: 72 h
Procedure: as §1, §2

[10] = system: Vero; assay: MTT cytotoxicity assay; format: cell-based; details: for IC50: MTT, 72 h
Procedure: as §1, §2

[11] = system: AsPC-1; assay: MTT cytotoxicity assay; format: cell-based, human
Procedure: as §1, §2

[12] = system: Capan-2; assay: MTT cytotoxicity assay; format: cell-based, human
Procedure: as §1, §2

[13] = system: PANC-1; assay: MTT cytotoxicity assay; format: cell-based, human
Procedure: as §1, §2

[14] = system: cell lines in Table 2; assay: MTT assays, summary over the cell lines in Table 2; format: cell-based
Procedure: as §1, §2

[15] = system: PD002; assay: Scratch (wound healing) assay; format: cell-based; details: 0.2 μM, 24 h; untreated PD002 63%
Procedure: Scratch Assay. A confluent monolayer was formed in 24-well plates. The monolayer was scratched by a sterile 200 μL pipette tip and washed with PBS to remove cell debris. Complete medium with CPPB (5) (0, 0.05, 0.1, 0.2 μM) were added and scratched areas were photographed with microscope. The scratched cells were incubated at 37° C., 5% CO2. After 24 h, medium was removed and cells were stained with a 1:1 mixture of crystal violet and PBS for 5 min., washed with PBS twice, and photographed with microscope. Wound areas were measured and recovered areas were calculated.

[16] = system: DPAGT1; assay: Immunofluorescent staining of DPAGT1 expression; format: cell-based
[17] = system: DPAGT1 gene; assay: RT-qPCR analyses of DPAGT1 expression level; format: cell-based; details: PD002
[18] = target: MraY/MurX (Mycobacterium tuberculosis, UniProt P9WMW7); details: background; cited from earlier work
Sequence of MraY/MurX (P9WMW7 whole entry): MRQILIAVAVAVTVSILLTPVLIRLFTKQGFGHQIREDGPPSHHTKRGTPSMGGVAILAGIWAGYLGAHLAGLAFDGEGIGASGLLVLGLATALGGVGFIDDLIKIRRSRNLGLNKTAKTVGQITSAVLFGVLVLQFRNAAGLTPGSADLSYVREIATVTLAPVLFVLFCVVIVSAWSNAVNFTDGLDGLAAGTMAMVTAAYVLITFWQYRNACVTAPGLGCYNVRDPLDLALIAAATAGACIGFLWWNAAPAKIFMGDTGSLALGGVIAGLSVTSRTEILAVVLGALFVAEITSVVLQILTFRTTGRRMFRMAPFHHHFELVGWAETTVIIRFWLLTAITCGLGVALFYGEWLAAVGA

[19] = system: WecA; details: background; cited from earlier work
[20] = system: DPAGT1; details: background; cited from earlier work
[21] = system: mice; details: IP; cited from earlier work
[22] = target: WecA (E. coli) (Escherichia coli, UniProt P0AC78); assay: WecA assay
Sequence of WecA (E. coli) (P0AC78 whole entry): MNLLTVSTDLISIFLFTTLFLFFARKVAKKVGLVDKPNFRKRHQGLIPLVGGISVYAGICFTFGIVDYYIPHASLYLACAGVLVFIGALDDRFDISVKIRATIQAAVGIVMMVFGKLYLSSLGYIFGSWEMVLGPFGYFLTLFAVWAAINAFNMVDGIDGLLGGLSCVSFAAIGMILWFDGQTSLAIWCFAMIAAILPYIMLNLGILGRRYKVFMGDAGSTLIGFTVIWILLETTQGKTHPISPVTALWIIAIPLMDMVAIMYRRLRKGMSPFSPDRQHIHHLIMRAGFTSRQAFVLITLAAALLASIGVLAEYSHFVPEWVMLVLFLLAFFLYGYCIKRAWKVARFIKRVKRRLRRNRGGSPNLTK
Procedure: Preparation of membrane fraction P-60 containing WecA. E. coli B21 wecA strain were harvested by centrifugation (4,700 rpm) at 4° C. followed by washing with 0.9% saline solution (thrice). The washed cell pellets were washed with homogenization buffer (containing 50 mM K2HPO4, 5 mM MgCl2, 5 mM 1,4-dithio-DL-threitol, and 10% glycerol, pH=7.2) (thrice), and approximately 5 g of pellet (wet weight) was collected. The washed cell pellets were suspended in homogenization buffer and disrupted by probe sonication on ice (5 s on and 2 s off for 1 min, then cool down for 1.5 min., 5 cycles, cool down for 15 min, and then, 5 s on and 2 s off for 1 min., cool down for 1.5 min, 5 cycles). The resulting suspension was centrifuged at 4,700×g for 15 min. at 4° C. to remove unbroken cells. The lysate was centrifuged at 25,000×g for 20 min. at 4° C. The supernatant was subjected to ultracentrifugation at 60,000×g for 1 h at 4° C. The supernatant was discarded, and the membrane fraction containing WecA enzyme (P-60) was suspended in the Tris-HCl buffer (pH=7.5). Total protein concentrations were approximately 8 to 10 mg/mL. Aliquots were stored in Eppendorf tubes at −80° C.

[23] = target: T2, AglH (M. jannaschii) (Methanocaldococcus jannaschii, UniProt Q58513); assay: AglH assay
T2 sequence (Q58513 1-301): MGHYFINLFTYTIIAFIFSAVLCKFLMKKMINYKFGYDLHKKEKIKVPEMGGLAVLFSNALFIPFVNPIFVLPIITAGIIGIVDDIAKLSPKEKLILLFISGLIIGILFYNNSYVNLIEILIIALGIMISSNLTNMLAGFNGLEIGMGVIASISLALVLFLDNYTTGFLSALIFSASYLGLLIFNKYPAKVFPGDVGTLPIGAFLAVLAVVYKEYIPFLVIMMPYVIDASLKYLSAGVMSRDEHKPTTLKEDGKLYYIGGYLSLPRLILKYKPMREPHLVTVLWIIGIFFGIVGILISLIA

[24] = system: Myocobacterium tuberculosis H37Rv, Mycobacterium avium 2285, Mycobacterium smegmatis (ATCC607); assay: Antimycobacterial activity (MIC); format: cell-based, Mycobacterium spp.; details: at 50 μg/mL
[25] = system: MraY; details: background; cited from earlier work

Sequence of MraY (Hydrogenivirga sp.) (Z9Y2G8N0L0 7-365 limits assumed): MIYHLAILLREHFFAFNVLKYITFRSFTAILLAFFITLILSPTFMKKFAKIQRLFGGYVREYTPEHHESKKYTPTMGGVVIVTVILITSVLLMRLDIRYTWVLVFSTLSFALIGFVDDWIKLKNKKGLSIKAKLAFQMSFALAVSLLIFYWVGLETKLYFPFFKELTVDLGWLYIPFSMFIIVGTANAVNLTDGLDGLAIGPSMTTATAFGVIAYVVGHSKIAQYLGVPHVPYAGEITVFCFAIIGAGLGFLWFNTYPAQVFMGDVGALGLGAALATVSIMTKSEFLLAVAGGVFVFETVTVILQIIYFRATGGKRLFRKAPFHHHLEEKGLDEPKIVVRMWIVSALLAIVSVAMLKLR

Row | Compound | IC50 [1] | IC50 [2] | IC50 ([3]; 72 h) | IC50 ([4]; 72 h) | IC50 [5] | IC50 [6] | IC50 [7] | IC50 [8] | IC50 [9] | IC50 [10] | IC50 ([11]; 72 h) | IC50 ([12]; 72 h) | IC50 ([13]; 72 h) | IC50 [19] | IC50 ([22]; read-out: IC50 WecA (E. coli)) | MraY inhibitory activity (in words) [1] | DPAGT1 inhibitory activity (in words) [2] | IC50 ([3]; Homo sapiens, DLD-1, 72 h) | IC50 ([4]; Homo sapiens, HCT-116, 72 h) | IC50 ([5]; HPNE) | further results
1 | Tunicamycin | 2.9 µM | 1.5 µM | 1.25 µM | 0.92 µM | 7.5 µM | 2.5 µM | 1.7 µM | 1.5 µM | 0.92 µM | 0.78 µM | 0.45 µM | 1.5 µM | 1.5 µM | 0.15 µM | 0.15 µM | – | – | – | – | – | IC50 ([14]; all cell lines in Table 2, read-out: IC50 range, growth inhibition of all cell lines in Table 2): 0.78 to 7.5 µM and 0.45 to 7.5 µM; wound-healing rate [15]: 35%; DPAGT1 protein expression [16]: decreased; DPAGT1 gene expression [17]: decreased; IC50 [18]: 3.38 µM; IC50 [20]: 2.5 µM; LD100 [21]: 3.5 mg/kg; LDs50 [21]: 2.0 mg/kg; IC50 ([23]; read-out: IC50 AglH (M. jannaschii)): 13.2 µM
2 | CO[C@@H]1[C@H](O)[C@@H]([C@@H](O[C@H]2OC(C(=O)NCc3ccc(N4CCC(Oc5ccc(OC(F)(F)F)cc5)CC4)cc3)=C[C@H](O)[C@@H]2O)C(N)=O)O[C@H]1n1ccc(=O)[nH]c1=O | – | – | – | – | – | – | – | – | – | – | – | – | – | – | – | did not display MraY inhibitory activity | high nM range DPAGT1 inhibitors | 35 µM | 25 µM | > 50 µM | antiproliferative activity against HPNE ([5]; at 50 μM, normal pancreatic ductal cell): did not show antiproliferative activity; IC50 ([6]; Homo sapiens, KB): 35 µM; antiproliferative activity against L1210 ([7]; at 50 μM): did not show antiproliferative activity; IC50 ([8]; PD002): 50 µM; IC50 ([9]; Homo sapiens, SiHa): 25 µM; IC50 ([10]; Chlorocebus sabaeus, Vero): > 50 µM; antiproliferative activity against Vero ([10]; at 50 μM, normal kidney cell): did not show antiproliferative activity; IC50 ([11]; Homo sapiens, ASPC1, 72 h): 30 µM; IC50 ([12]; Homo sapiens, Capan-2, 72 h): 40 µM; IC50 ([13]; Homo sapiens, PANC-1, 72 h): 45 µM; IC50 ([14]; KB, SiHa, HCT-116, DLP-1, Capan-2, PANC-1, AsPC-1, PD002, MTT assays, read-out: IC50 range, growth inhibition of solid cancer cell lines): 15 to 40 µM; growth inhibitory activity against Mycobacterium spp. [24]: did not show growth inhibitory activity; WecA inhibitory activity (in words) [22]: very weak; AglH inhibitory activity (in words) [23]: very weak
3 | CO[C@H]1[C@@H](O)[C@H](n2ccc(=O)[nH]c2=O)O[C@@H]1[C@@H](O[C@H]1OC(C(=O)N[C@H]2CCCCNC2=O)=C[C@H](O)[C@@H]1O)C(N)=O [Capuramycin] | 0.13 µM | – | – | – | – | – | – | – | – | – | – | – | – | – | – | selective MraY inhibitor | does not display inhibitory activity | > 50 µM | > 50 µM | > 50 µM | IC50 ([6]; Homo sapiens, KB): > 50 µM; IC50 ([7]; Mus musculus, L1210): > 50 µM; IC50 ([8]; PD002): > 50 µM; IC50 ([9]; Homo sapiens, SiHa): > 50 µM; IC50 ([10]; Chlorocebus sabaeus, Vero): > 50 µM; IC50 ([11]; Homo sapiens, ASPC1, 72 h): > 50 µM; IC50 ([12]; Homo sapiens, Capan-2, 72 h): > 50 µM; IC50 ([13]; Homo sapiens, PANC-1, 72 h): > 50 µM; IC50 [25]: 0.15 µM; IC50 [22]: > 50 µM; WecA inhibitory activity (in words) [22]: does not display inhibitory activity; AglH inhibitory activity (in words) [23]: does not display inhibitory activity; IC50 [23]: > 50 µM
4 | CO[C@H]1[C@@H](OC)[C@H](n2ccc(=O)[nH]c2=O)O[C@@H]1[C@@H](O[C@H]1OC(C(=O)N[C@H]2CCCCNC2=O)=C[C@H](O)[C@@H]1O)C(N)=O [O-Methyl capuramycin] | > 50 µM | 4.5 µM | > 50 µM | > 50 µM | > 50 µM | > 50 µM | > 50 µM | > 50 µM | > 50 µM | > 50 µM | > 50 µM | > 50 µM | > 50 µM | ~0.06 µM | 0.06 µM | – | – | – | – | – | IC50 ([2]; listed as OM-CAP): 3.5 µM; MraY/MurX inhibitory activity (in words) [18]: does not exhibit MraY/MurX inhibitory activity
